Assays:
Type in all cases: functional
NCI-H522 [1] = assay: Growth inhibition of human NCI-H522 cells assessed as cell growth at 10^-7 M after 48 hrs by sulforhodamine B assay; conditions: NCI-H522, 48 h, read-out: Activity
M14 = assay: Growth inhibition of human M14 cells assessed as cell growth at 10^-6 M after 48 hrs by sulforhodamine B assay; conditions: M14, 48 h, read-out: Activity
CAKI-1 = assay: Growth inhibition of human CAKI-1 cells assessed as cell growth at 10^-8 M after 48 hrs by sulforhodamine B assay; conditions: CAKI-1, 48 h; for growth at 0.01 µM: read-out: Activity; for CC50: read-out: pLC50 (the source's name) (converted); for TGI: read-out: pTGI (converted)
[2] = Growth inhibition of human MOLT4 cells assessed as cell growth at 10^-4 M after 48 hrs by sulforhodamine B assay; conditions: MOLT-4, 48 h, read-out: Activity
[3] = Growth inhibition of human HCC2998 cells after 48 hrs by sulforhodamine B assay; conditions: HCC 2998, 48 h; for CC50: read-out: LC50 (the source's name)
[4] = Growth inhibition of human LOXIMVI cells assessed as cell growth at 10^-4 M after 48 hrs by sulforhodamine B assay; conditions: LOX IMVI, read-out: Activity
IGROV-1 [5] = assay: Growth inhibition of human IGROV1 cells assessed as cell growth at 10^-6 M after 48 hrs by sulforhodamine B assay; conditions: IGROV-1, 48 h, read-out: Activity
[6] = Growth inhibition of human HOP92 cells assessed as cell growth at 10^-6 M after 48 hrs by sulforhodamine B assay; conditions: HOP-92, 48 h, read-out: Activity
HT-29 = assay: Growth inhibition of human HT-29 cells after 48 hrs by sulforhodamine B assay; conditions: HT-29, 48 h; for CC50: read-out: LC50 (the source's name)
[7] = Growth inhibition of human HCC2998 cells assessed as cell growth at 10^-4 M after 48 hrs by sulforhodamine B assay; conditions: HCC 2998, 48 h, read-out: Activity
K562 = assay: Growth inhibition of human K562 cells assessed as cell growth at 10^-6 M after 48 hrs by sulforhodamine B assay; conditions: K562, 48 h, read-out: Activity
SNB-19 = assay: Growth inhibition of human SNB19 cells assessed as cell growth at 10^-6 M after 48 hrs by sulforhodamine B assay; conditions: SNB-19, 48 h, read-out: Activity
NCI-H322M [8] = assay: Growth inhibition of human NCI-H322M cells assessed as cell growth at 10^-7 M after 48 hrs by sulforhodamine B assay; conditions: read-out: Activity
MCF7 = assay: Growth inhibition of human MCF7 cells after 48 hrs by sulforhodamine B assay; conditions: MCF7, 48 h; for CC50: read-out: LC50 (the source's name)
ACHN [9] = assay: Growth inhibition of human ACHN cells assessed as cell growth at 10^-4 M after 48 hrs by sulforhodamine B assay; conditions: read-out: Activity
NCI-H522 [10] = assay: Growth inhibition of human NCI-H522 cells assessed as cell growth at 10^-4 M after 48 hrs by sulforhodamine B assay; conditions: NCI-H522, 48 h, read-out: Activity
IGROV-1 [11] = assay: Growth inhibition of human IGROV1 cells assessed as cell growth at 10^-4 M after 48 hrs by sulforhodamine B assay; conditions: IGROV-1, 48 h, read-out: Activity
[12] = Growth inhibition of human UACC257 cells after 48 hrs by sulforhodamine B assay; conditions: UACC-257, 48 h; for CC50: read-out: LC50 (the source's name)
KM12 = assay: Growth inhibition of human KM12 cells assessed as cell growth at 10^-7 M after 48 hrs by sulforhodamine B assay; conditions: KM12, 48 h, read-out: Activity
COLO 205 = assay: Induction of apoptosis in human COLO205 cells assessed as late apoptosis cells level at 10 uM after 24 hrs by Annexin V/propidium iodide staining-based fluorescence microscopy
ACHN [13] = assay: Growth inhibition of human ACHN cells assessed as cell growth at 10^-6 M after 48 hrs by sulforhodamine B assay; conditions: read-out: Activity
NCI-H322M [14] = assay: Growth inhibition of human NCI-H322M cells assessed as cell growth at 10^-8 M after 48 hrs by sulforhodamine B assay; conditions: for growth at 0.01 µM: read-out: Activity; for TGI: read-out: pTGI (converted)
SN12C = assay: Growth inhibition of human SN12C cells assessed as cell growth at 10^-8 M after 48 hrs by sulforhodamine B assay; conditions: for growth at 0.01 µM: read-out: Activity; for TGI: read-out: pTGI (converted)
NCI-H322M [15] = assay: Growth inhibition of human NCI-H322M cells assessed as cell growth at 10^-4 M after 48 hrs by sulforhodamine B assay; conditions: read-out: Activity
786-0 = assay: Growth inhibition of human 786-0 cells assessed as cell growth at 10^-4 M after 48 hrs by sulforhodamine B assay; conditions: 786-0, 48 h, read-out: Activity
HCT-116 = assay: Growth inhibition of human HCT116 cells assessed as cell growth at 10^-7 M after 48 hrs by sulforhodamine B assay; conditions: HCT-116, 48 h, read-out: Activity
[16] = Growth inhibition of human SF539 cells assessed as cell growth at 10^-4 M after 48 hrs by sulforhodamine B assay; conditions: SF-539, 48 h, read-out: Activity
[17] = Growth inhibition of human NCI-ADR-RES cells assessed as cell growth at 10^-7 M after 48 hrs by sulforhodamine B assay; conditions: read-out: Activity
SR = assay: Growth inhibition of human SR cells after 48 hrs by sulforhodamine B assay; conditions: for CC50: read-out: LC50 (the source's name)
HL-60(TB) [18] = assay: Growth inhibition of human HL-60(TB) cells assessed as cell growth at 10^-7 M after 48 hrs by sulforhodamine B assay; conditions: HL-60, 48 h, read-out: Activity
MDA-MB-468 = assay: Growth inhibition of human MDA-MB-468 cells assessed as cell growth at 10^-6 M after 48 hrs by sulforhodamine B assay; conditions: MDA-MB-468, 48 h, read-out: Activity
HL-60(TB) [19] = assay: Growth inhibition of human HL-60(TB) cells assessed as cell growth at 10^-6 M after 48 hrs by sulforhodamine B assay; conditions: HL-60, 48 h, read-out: Activity
SW-620 = assay: Growth inhibition of human SW620 cells assessed as cell growth at 10^-8 M after 48 hrs by sulforhodamine B assay; conditions: SW-620, 48 h; for growth at 0.01 µM: read-out: Activity; for TGI: read-out: pTGI (converted)
NCI-H226 = assay: Growth inhibition of human NCI-H226 cells after 48 hrs by sulforhodamine B assay; conditions: NCI-H226, 48 h; for CC50: read-out: LC50 (the source's name)
SK-MEL-2 = assay: Growth inhibition of human SK-MEL-2 cells assessed as cell growth at 10^-7 M after 48 hrs by sulforhodamine B assay; conditions: SK-MEL-2, 48 h, read-out: Activity

In the case of O=C1/C(=C/c2ccc(Cl)cc2Cl)CN(S(=O)(=O)c2ccccc2)C/C1=C\c1ccc(Cl)cc1Cl, the growth at 0.1 µM (NCI-H522 [1]) is reported as 97%, the growth at 1 µM (M14) is reported as 93% and the GI50 (CAKI-1) is reported as 1820 nM. The growth at 0.01 µM (CAKI-1) was 89%, the CC50 (CAKI-1) was > 100 µM and the TGI (CAKI-1) was 5.75 µM. It also gave a growth at 100 µM [2] of -11%, a GI50 [3] of 383 nM and a TGI [3] of 1360 nM. The CC50 [3] was 4.54 µM, the growth at 100 µM [4] was -48% and the growth at 1 µM (IGROV-1 [5]) was -30%. The growth at 1 µM [6] was 72%, the GI50 (HT-29) was 293 nM and the TGI (HT-29) was 843 nM. The CC50 (HT-29) was > 100 µM, the growth at 100 µM [7] was -66% and the growth at 1 µM (K562) was 8%. The growth at 1 µM (SNB-19) was 10%, the growth at 0.1 µM (NCI-H322M [8]) was 123% and the GI50 (MCF7) was 305 nM. The TGI (MCF7) was 100 µM, the CC50 (MCF7) was > 100 µM and the growth at 100 µM (ACHN [9]) was -17%. It also gave a growth at 100 µM (NCI-H522 [10]) of -56%, a growth at 100 µM (IGROV-1 [11]) of -47% and a GI50 [12] of 4080 nM. For the same compound, the TGI [12] was > 100000 nM, the CC50 [12] was > 100 µM and the growth at 0.1 µM (KM12) was 105%. The Activity (COLO 205) was 18%, the growth at 1 µM (ACHN [13]) was 47% and the GI50 (NCI-H322M [14]) was 676 nM. For the same compound, the LC50 (NCI-H322M [14]) was > 100 µM, the growth at 0.01 µM (NCI-H322M [14]) was 107% and the TGI (NCI-H322M [14]) was 3.55 µM. The GI50 (SN12C) was 245 nM, the LC50 (SN12C) was > 100 µM and the growth at 0.01 µM (SN12C) was 93%. It also gave a TGI (SN12C) of 724 nM, a growth at 100 µM (NCI-H322M [15]) of -11% and a growth at 100 µM (786-0) of -93%. For the same compound, the growth at 0.1 µM (HCT-116) was 95%, the growth at 100 µM [16] was -40% and the growth at 0.1 µM [17] was 109%. For the same compound, the GI50 (SR) was 185 nM, the TGI (SR) was 865 nM and the CC50 (SR) was > 100 µM. The growth at 0.1 µM (HL-60(TB) [18]) was 92%, the growth at 1 µM (MDA-MB-468) was 55% and the growth at 1 µM (HL-60(TB) [19]) was 36%. The GI50 (SW-620) was 316 nM, the LC50 (SW-620) was > 100000 nM and the growth at 0.01 µM (SW-620) was 97%. For the same compound, the TGI (SW-620) was 2820 nM, the GI50 (NCI-H226) was 1.04 µM and the TGI (NCI-H226) was 2.87 µM. The CC50 (NCI-H226) was 7.92 µM and the growth at 0.1 µM (SK-MEL-2) was 111%.

In the case of Cc1ccc(S(=O)(=O)N2C/C(=C\c3cc(F)cc(F)c3)C(=O)/C(=C/c3cc(F)cc(F)c3)C2)cc1, the growth at 0.1 µM (NCI-H522 [1]) is reported as 102%, the growth at 1 µM (M14) is reported as 12% and the GI50 (CAKI-1) is reported as 363 nM. The growth at 0.01 µM (CAKI-1) was 94%, the CC50 (CAKI-1) was 61.7 µM and the TGI (CAKI-1) was 2.45 µM. The growth at 100 µM [2] was -27%, the GI50 [3] was 602 nM and the TGI [3] was 1910 nM. The CC50 [3] was 4.85 µM, the growth at 100 µM [4] was -98% and the growth at 1 µM (IGROV-1 [5]) was 18%. It also gave a growth at 1 µM [6] of 55%, a GI50 (HT-29) of 229 nM and a TGI (HT-29) of 638 nM. For the same compound, the CC50 (HT-29) was 3.19 µM, the growth at 100 µM [7] was -95% and the growth at 1 µM (K562) was 3%. For the same compound, the growth at 1 µM (SNB-19) was -12%, the growth at 0.1 µM (NCI-H322M [8]) was 103% and the GI50 (MCF7) was 175 nM. It also gave a TGI (MCF7) of 1.45 µM, a CC50 (MCF7) of 6.88 µM and a growth at 100 µM (ACHN [9]) of -94%. For the same compound, the growth at 100 µM (NCI-H522 [10]) was -94%, the growth at 100 µM (IGROV-1 [11]) was -80% and the GI50 [12] was 939 nM. The TGI [12] was 2900 nM, the CC50 [12] was 8.6 µM and the growth at 0.1 µM (KM12) was 103%. It also gave an Activity (COLO 205) of 43%, a growth at 1 µM (ACHN [13]) of -26% and a GI50 (NCI-H322M [14]) of 4680 nM. The LC50 (NCI-H322M [14]) was > 100 µM, the growth at 0.01 µM (NCI-H322M [14]) was 102% and the TGI (NCI-H322M [14]) was 22.9 µM. It also gave a GI50 (SN12C) of 339 nM, an LC50 (SN12C) of 4.27 µM and a growth at 0.01 µM (SN12C) of 95%. For the same compound, the TGI (SN12C) was 1320 nM, the growth at 100 µM (NCI-H322M [15]) was -44% and the growth at 100 µM (786-0) was -95%. It also gave a growth at 0.1 µM (HCT-116) of 89%, a growth at 100 µM [16] of -94% and a growth at 0.1 µM [17] of 106%. For the same compound, the GI50 (SR) was 34.8 nM, the TGI (SR) was 252 nM and the CC50 (SR) was > 100 µM. The growth at 0.1 µM (HL-60(TB) [18]) was 89%, the growth at 1 µM (MDA-MB-468) was 22% and the growth at 1 µM (HL-60(TB) [19]) was 4%. For the same compound, the GI50 (SW-620) was 72.4 nM, the LC50 (SW-620) was 1450 nM and the growth at 0.01 µM (SW-620) was 99%. It also gave a TGI (SW-620) of 302 nM, a GI50 (NCI-H226) of 8.62 µM and a TGI (NCI-H226) of 39.6 µM. The CC50 (NCI-H226) was > 100 µM and the growth at 0.1 µM (SK-MEL-2) was 112%.

— ChEMBL document CHEMBL3217615, “Novel 3,5-bis(arylidiene)-4-piperidone based monocarbonyl analogs of curcumin: anticancer activity evaluation and mode of action study” (2014)
